Experimental data taken from patent US20020155443A1, “Metal binding DNA interactive compounds” (priority 2000, published 2002).

Legend:
Assay in all cases: DTP Human Tumor Cell Line Screen, sulforhodamine B assay
Format in all cases: cell-based
SK-MEL-2 = details: Melanoma, 48 h
Experimental: (§1) The growth inhibitory activity of propargylic sulfone 3.2 against a wide range of human cancer cell lines was determined calorimetrically with sulforhodamine B assay conducted by the National Cancer Institute of the National Institutes of Health.
(§2) The in vitro cytotoxicity of compounds 2.47, 2.48 and 3.2 were investigated using the DTP Human Tumor Cell Line Screen. The concept, rationale and history of development of the DTP Human Tumor Cell Line Screen were described by Boyd (1993;1997)^8.4, 8.6 and Boyd and Paull (1995)^8.5. Further technical details of the NCI screening procedures were described (Monks, et. al.)^8.2 as were the origins and processing of the cell lines (Alley, et. al., Shoemaker, et. al., Stinson, et. al.). Briefly, cell suspensions that were diluted according to the particular cell type and the expected target cell density (5000-40,000 cells per well based on cell growth characteristics) were added by pipet (100 μL) into 96-well microtiter plates. Inoculates were allowed a preincubation period of 24 h at 37° C. for stabilization. Dilutions at twice the intended test concentration were added at time zero in 100-μL aliquots to the microtiter plate wells. Usually, test compounds were evaluated at five 10-fold dilutions. In routine testing, the highest well concentration is 10E-4 M, but for the standard agents the highest well concentration used depended on the agent. Incubations lasted for 48 h in 5% CO2 atmosphere and 100% humidity. The cells were assayed by using the sulforhodamine B assay (Rubinstein, et. al., Skehan, et. al.). A plate reader was used to read the optical densities, and a microcomputer processed the optical densities into the special concentration parameters.

SR = details: Leukemia, 48 h
Experimental: as §1, §2

SK-OV-3 = details: Ovarian Cancer, 48 h
Experimental: as §1, §2

LOX IMVI = details: Melanoma, 48 h
Experimental: as §1, §2

HOP-62 = details: Non-Small Cell Lung Cancer, 48 h
Experimental: as §1, §2

SK-MEL-28 = details: Melanoma, 48 h
Experimental: as §1, §2

TK-10 = details: Renal Cancer, 48 h
Experimental: as §1, §2

IGROV1 = details: 48 h
Experimental: as §1, §2

MDA-N = details: Breast Cancer, 48 h
Experimental: as §1, §2

SNB-75 = details: CNS Cancer, 48 h
Experimental: as §1, §2

U251 = details: 48 h
Experimental: as §1, §2

K-562 = details: 48 h
Experimental: as §1, §2

EKVX = details: Non-Small Cell Lung Cancer, 48 h
Experimental: as §1, §2

MDA-MB-231/ATCC = details: Breast Cancer, 48 h
Experimental: as §1, §2

SK-MEL-5 = details: Melanoma, 48 h
Experimental: as §1, §2

NCI-H460 = details: Non-Small Cell Lung Cancer, 48 h
Experimental: as §1, §2

CAKI-1 = details: Renal Cancer, 48 h
Experimental: as §1, §2

PC-3 = details: Prostate Cancer, 48 h
Experimental: as §1, §2

HL-60 (TB) = details: Leukemia, 48 h
Experimental: as §1, §2

BT-549 = details: Breast Cancer, 48 h
Experimental: as §1, §2

RXF 393 = details: Renal Cancer, 48 h
Experimental: as §1, §2

HCT-15 = details: Colon Cancer, 48 h
Experimental: as §1, §2

A-549/ATCC = details: 48 h
Experimental: as §1, §2

A498 = details: Renal Cancer, 48 h
Experimental: as §1, §2

MALME-3M = details: Melanoma, 48 h
Experimental: as §1, §2

DU-145 = details: Prostate Cancer, 48 h
Experimental: as §1, §2

OVCAR-8 = details: Ovarian Cancer, 48 h
Experimental: as §1, §2

KM12 = details: Colon Cancer, 48 h
Experimental: as §1, §2

OVCAR-4 = details: Ovarian Cancer, 48 h
Experimental: as §1, §2

MOLT-4 = details: Leukemia, 48 h
Experimental: as §1, §2

MCF7/ADR-RES = details: Breast Cancer, 48 h
Experimental: as §1, §2

HCT-116 = details: Colon Cancer, 48 h
Experimental: as §1, §2

MCF7 = details: Breast Cancer, 48 h
Experimental: as §1, §2

OVCAR-3 = details: Ovarian Cancer, 48 h
Experimental: as §1, §2

COLO 205 = details: Colon Cancer, 48 h
Experimental: as §1, §2

786-0 = details: Renal Cancer, 48 h
Experimental: as §1, §2

HCC-2998 = details: Colon Cancer, 48 h
Experimental: as §1, §2

ACHN = details: Renal Cancer, 48 h
Experimental: as §1, §2

SN12C = details: Renal Cancer, 48 h
Experimental: as §1, §2

NCI-H322M = details: Non-Small Cell Lung Cancer, 48 h
Experimental: as §1, §2

UACC-257 = details: Melanoma, 48 h
Experimental: as §1, §2

`O=S1(=O)CC#CCOCCOCCOCCOCCOCCOCC#CC1` [Compound 2.47] gave an IC50 (SK-MEL-2) of 16.1 µM, an IC50 (SR) of 8.2 µM and an IC50 (SK-OV-3) of 36 µM. The IC50 (LOX IMVI) was 11.1 µM, the IC50 (HOP-62) was 21.7 µM and the IC50 (SK-MEL-28) was 18.9 µM. The IC50 (TK-10) was 13.9 µM, the IC50 (IGROV1; Ovarian Cancer) was 16.3 µM and the IC50 (MDA-N) was 14.2 µM. The IC50 (SNB-75) was 19.9 µM, the IC50 (U251; CNS Cancer) was 16.9 µM and the IC50 (K-562; Leukemia) was 11.2 µM. It also gave an IC50 (EKVX) of 15.1 µM, an IC50 (MDA-MB-231/ATCC) of 20 µM and an IC50 (SK-MEL-5) of 16.8 µM. It also gave an IC50 (NCI-H460) of 19.3 µM, an IC50 (CAKI-1) of 12.2 µM and an IC50 (PC-3) of 18.6 µM. It also gave an IC50 (HL-60 (TB)) of 13.5 µM, an IC50 (BT-549) of 14.1 µM and an IC50 (RXF 393) of 15.1 µM. For the same molecule, the IC50 (HCT-15) was 15.5 µM, the IC50 (A-549/ATCC; Non-Small Cell Lung Cancer) was 20.2 µM and the IC50 (A498) was 16.9 µM. The IC50 (MALME-3M) was 2.7 µM, the IC50 (DU-145) was 32.8 µM and the IC50 (OVCAR-8) was 14.2 µM. For the same molecule, the IC50 (KM12) was 16.2 µM, the IC50 (OVCAR-4) was 19.8 µM and the IC50 (MOLT-4) was 3.7 µM. The IC50 (MCF7/ADR-RES) was 25.7 µM, the IC50 (HCT-116) was 8.1 µM and the IC50 (MCF7) was 10.1 µM. It also gave an IC50 (OVCAR-3) of 15.8 µM, an IC50 (COLO 205) of 7.2 µM and an IC50 (786-0) of 11 µM. For the same molecule, the IC50 (HCC-2998) was 19.1 µM, the IC50 (ACHN) was 13.5 µM and the IC50 (SN12C) was 13.2 µM. The IC50 (NCI-H322M) was 17.5 µM and the IC50 (UACC-257) was 11.6 µM.

`O=S1(=O)CC#CCOCCOCCOCCOCCOCCOCCOCC#CC1` [Compound 2.48] was tested, and the IC50 (SK-MEL-2) was 17.3 µM, the IC50 (SR) was 18.9 µM and the IC50 (SK-OV-3) was 32.2 µM. It also gave an IC50 (LOX IMVI) of 19.9 µM, an IC50 (HOP-62) of 21 µM and an IC50 (SK-MEL-28) of 17.9 µM. For the same molecule, the IC50 (TK-10) was 23 µM, the IC50 (IGROV1; Ovarian Cancer) was 44.6 µM and the IC50 (MDA-N) was 18.9 µM. For the same molecule, the IC50 (SNB-75) was 32.6 µM, the IC50 (U251; CNS Cancer) was 18.3 µM and the IC50 (K-562; Leukemia) was 23.9 µM. For the same molecule, the IC50 (EKVX) was 20.9 µM, the IC50 (MDA-MB-231/ATCC) was 23.5 µM and the IC50 (SK-MEL-5) was 18.1 µM. It also gave an IC50 (NCI-H460) of 38 µM, an IC50 (CAKI-1) of 21.2 µM and an IC50 (PC-3) of 43.4 µM. It also gave an IC50 (HL-60 (TB)) of 20.9 µM, an IC50 (BT-549) of 20 µM and an IC50 (RXF 393) of 27 µM. It also gave an IC50 (HCT-15) of 32.7 µM, an IC50 (A-549/ATCC; Non-Small Cell Lung Cancer) of 61.7 µM and an IC50 (A498) of 54.7 µM. For the same molecule, the IC50 (MALME-3M) was 14.6 µM, the IC50 (DU-145) was greater than 100 µM and the IC50 (OVCAR-8) was 33.3 µM. For the same molecule, the IC50 (KM12) was 20.7 µM, the IC50 (OVCAR-4) was 27.3 µM and the IC50 (MOLT-4) was 19.9 µM. For the same molecule, the IC50 (MCF7/ADR-RES) was greater than 100 µM, the IC50 (HCT-116) was 15.3 µM and the IC50 (MCF7) was 22 µM. The IC50 (OVCAR-3) was 19.7 µM, the IC50 (COLO 205) was 14.7 µM and the IC50 (786-0) was 18.4 µM. The IC50 (HCC-2998) was 17.7 µM, the IC50 (ACHN) was 22.4 µM and the IC50 (SN12C) was 18.8 µM. It also gave an IC50 (NCI-H322M) of 32.3 µM and an IC50 (UACC-257) of 21.2 µM.

Work on `O=C(OCC1COCCOCCOCCOCCO1)c1ccc(CS(=O)(=O)CC#CCO)cc1` (stereo not drawn) [Compound 3.2] yielded an IC50 (SK-MEL-2; Homo sapiens) of 98.7 µM, an IC50 (SR; Homo sapiens) greater than 100 µM and an IC50 (SK-OV-3; Homo sapiens) greater than 100 µM. It also gave an IC50 (LOX IMVI; Homo sapiens) of 54.3 µM, an IC50 (HOP-62; Homo sapiens) greater than 100 µM and an IC50 (SK-MEL-28; Homo sapiens) greater than 100 µM. For the same molecule, the IC50 (TK-10; Homo sapiens) was greater than 100 µM, the IC50 (IGROV1; Homo sapiens, IGROV-1, Ovarian Cancer) was greater than 100 µM and the IC50 (MDA-N; Homo sapiens) was 37.4 µM. For the same molecule, the IC50 (SNB-75; Homo sapiens) was greater than 100 µM, the IC50 (U251; Homo sapiens, U-251, CNS Cancer) was 69 µM and the IC50 (K-562; Homo sapiens, K562, Leukemia) was 37 µM. For the same molecule, the IC50 (EKVX; Homo sapiens) was greater than 100 µM, the IC50 (MDA-MB-231/ATCC; Homo sapiens) was greater than 100 µM and the IC50 (SK-MEL-5; Homo sapiens) was greater than 100 µM. It also gave an IC50 (NCI-H460; Homo sapiens) greater than 100 µM, an IC50 (CAKI-1; Homo sapiens) greater than 100 µM and an IC50 (PC-3; Homo sapiens) greater than 100 µM. For the same molecule, the IC50 (HL-60 (TB); Homo sapiens) was greater than 100 µM, the IC50 (BT-549; Homo sapiens) was greater than 100 µM and the IC50 (RXF 393; Homo sapiens) was greater than 100 µM. The IC50 (HCT-15; Homo sapiens) was greater than 100 µM, the IC50 (A-549/ATCC; Homo sapiens, A549, Non-Small Cell Lung Cancer) was greater than 100 µM and the IC50 (A498; Homo sapiens) was greater than 100 µM. It also gave an IC50 (MALME-3M; Homo sapiens) greater than 100 µM, an IC50 (DU-145; Homo sapiens) greater than 100 µM and an IC50 (OVCAR-8; Homo sapiens) greater than 100 µM. The IC50 (KM12; Homo sapiens) was greater than 100 µM, the IC50 (OVCAR-4; Homo sapiens) was greater than 100 µM and the IC50 (MOLT-4; Homo sapiens) was greater than 100 µM. It also gave an IC50 (MCF7/ADR-RES; Homo sapiens) greater than 100 µM, an IC50 (HCT-116; Homo sapiens) greater than 100 µM and an IC50 (MCF7; Homo sapiens) greater than 100 µM. For the same molecule, the IC50 (OVCAR-3; Homo sapiens) was greater than 100 µM, the IC50 (COLO 205; Homo sapiens) was greater than 100 µM and the IC50 (786-0; Homo sapiens) was 35.3 µM. For the same molecule, the IC50 (HCC-2998; Homo sapiens) was greater than 100 µM, the IC50 (ACHN; Homo sapiens) was greater than 100 µM and the IC50 (SN12C; Homo sapiens) was 30.3 µM. It also gave an IC50 (NCI-H322M; Homo sapiens) of 34.3 µM and an IC50 (UACC-257; Homo sapiens) greater than 100 µM.
